Test results taken from article PMC11677692, “Analysis of Thiodiphenol in Rat Urine as a Biomarker of Exposure to Temephos” (Journal of Xenobiotics, 2024).
Where “and” joins values, the source holds several entries; their conditions need not be identical. Identical values can stand only once. Like-named read-outs stand apart in the source and are kept apart here.

Key:
[1] = Urinary excretion kinetics of temephos metabolites after a single oral dose of temephos; format: in vivo, adult male Wistar rats; settings: for Tmax / k el / half-life: male, Wistar, rat, po; for Tmax / k el / half-life / parent compound in urine: 300 mg/kg; for parent compound in urine: urine samples with and without enzyme hydrolysis, single oral dose 300 mg/kg
Experimental: Animals were individually housed in acrylic metabolism cages for the collection of urine for 8:16 h cycles (inside and outside the cage) for their adaptation during 8 d before treatment. Animals were orally administered with a single dose of temephos (300 mg/kg) emulsified with saline solution (0.9% NaCl). Urine was collected at intervals of 0–8, 8–16, 16–24, 24–48, 60–72, 84–96, 108–120, 132–144, 156–168, 228–240, and 324–336 h. Urine samples were collected and immediately centrifuged at 1600× g for 5 min at 4 °C (Eppendorf 5804R, Hamburg, Germany) and stored at −20 °C until processed for analysis.
(§1) Temephos urinary metabolites were enzymatically deconjugated, according to Cruz-Hurtado et al., with some modifications. Briefly, 200 µL of urine and 2000 IU of β-glucuronidase/sulfatase were added to a 0.5 M sodium acetate buffer at pH 5 to reach a final volume of 1 mL. The mixture was incubated at 50 °C in a water bath for an hour. To determine the optimal concentration of deconjugated temephos metabolites in the enzymatic hydrolysis assay, the concentration of β-glucuronidase/sulfatase was assessed from 250 to 4000 IU/mL. The enzymatic reaction was stopped by adding 10 mL of methylene chloride and cooling at room temperature; the mixture was vortexed for 1 min and then centrifuged at 1600× g for 15 min at room temperature. The organic phase was collected, and another residue extraction was performed using 10 mL of diethyl ether. Both supernatants were pooled and dried using anhydrous sodium sulfate. The solvent evaporated under a nitrogen current. The extracts were stored at −20 °C until analysis by HPLC-DAD. Extracts were dissolved in 200 µL of acetonitrile immediately before analysis. Urinary levels of temephos metabolites were adjusted by creatinine, which was determined using a commercial kit from Randox (CR510, Randox Laboratories Ltd., Crumlin, UK).
Temephos and its metabolites were analyzed by injecting urinary extracts into a liquid chromatograph equipped with a quaternary pump, autosampler, degasser, and UV-Vis Diode-Array detector (Agilent 1200, Agilent Technologies, Palo Alto, CA, USA). A ZORBAX Eclipse XDB C-18 column (4.6 × 150 mm, 5 µm) was used (Agilent Technologies, Deerfield, IL, USA). The detector wavelength was set at 254 nm, the reference wavelength was 550 nm, and the mobile phase was modified from Verdín-Betancourt et al.; it consisted of methanol (A), acetonitrile (B), and water (C), with initial solvent conditions of 27% A, 8% B, and 65% C at a rate of 1 mL/min at 25 °C. After injecting the sample (with different volumes), a 2.5 min linear gradient change was applied to achieve 23.5% A, 12.5% B, and 64% C, which was maintained for 1 min, followed by a second 2.5 min linear gradient change to 18% A, 18% B, and 64% C. Afterwards, another 4 min linear gradient change was applied to reach 20% A, 30% B, and 50% C. This condition was maintained for 2 min. Then, a fourth gradient change was applied, achieving 70% A, 25% B, and 5% C. In the end, the initial conditions were re-established to 27% A, 8% B, and 65% C. The column was equilibrated for 2 min before the next injection. The identity of temephos and its metabolites were confirmed by their retention time (tret) and UV spectra of standards. The concentrations of temephos, TDP, TDP-SO, and BPS were determined using calibration graphs of each compound. The concentration of the non-identified metabolite (NIM) was estimated using the Tem-dox-SO calibration graph due to their similarity in the UV spectrum and tret.
The urinary elimination constant (KElim-U) to determine the half-life of elimination (t1/2 Elim-U) for TDP, BPS, and NIMs was estimated from the slope of the curves in the Rate of Excretion plots (log-linear Rate of excretion (ΔU/Δt) versus mid-point time). […]

[2] = Enzymatic hydrolysis (β-glucuronidase/sulfatase) of urine of temephos-treated rats, HPLC-DAD; format: in vitro ADME, rat; settings: 50 °C, 1 h, vs non-hydrolyzed urine
Experimental: as §1, with “Both supernatants were pooled and dried using anhydrous sodium sulfate. The solvent evaporated under a nitrogen current. The extracts were stored at −20 °C until analysis by HPLC-DAD. Extracts were dissolved in 200 µL of acetonitrile immediately before analysis.” left out
Temephos and its metabolites were analyzed by injecting urinary extracts into a liquid chromatograph equipped with a quaternary pump, autosampler, degasser, and UV-Vis Diode-Array detector (Agilent 1200, Agilent Technologies, Palo Alto, CA, USA). […] The concentrations of temephos, TDP, TDP-SO, and BPS were determined using calibration graphs of each compound. […]

[3] = urine, male adult rats, single oral dose of temephos 300 mg/kg
[4] = urine, urine, male adult rats, single oral dose of temephos 300 mg/kg, read-out: KElim-U 2nd Phase (converted)
[5] = urine, urine, male adult rats, single oral dose of temephos 300 mg/kg, read-out: t1/2 Elim-U 2nd Phase (converted)
[6] = urine, rats, single oral dose of temephos 300 mg/kg

SMILES	Tmax [1, 3] [h]	k el ([1]; urine, urine, male adult rats, single oral dose of temephos 300 mg/kg, read-out: KElim-U 1st Phase (converted)) [s⁻¹]	k el [1, 4] [s⁻¹]	half-life ([1]; urine, urine, male adult rats, single oral dose of temephos 300 mg/kg, read-out: t1/2 Elim-U 1st Phase (converted)) [h]	half-life [1, 5] [h]	AUC0–∞ [1, 3]	Cmax-U [1, 3]	tmax-U [1, 3] [h]	Cmax fold higher than that of BPS [1, 6] [fold]	Cmax fold higher than that of NIMs [1, 6] [fold]	time detected in urine after dosing [1, 6]	increase of level in urine extracts after enzyme hydrolysis [2]	half-life ([1]; urine, urine, rats, single oral dose of temephos 300 mg/kg, read-out: t1/2 Elim-U (monophasic decline, one-compartment model) (converted)) [h]	time after which detection in urine was difficult [1, 6] [h]	parent compound in urine [1]	parent compound in urine ([1]; listed as temephos)
Oc1ccc(Sc2ccc(O)cc2)cc1 [TDP, 4,4′-thiodiphenol]	9	6.93e-06	7.08e-07	27.8	272	297,540 ± 76,013 nmol-h/mg Creatinine	366 nmol/mg Creatinine and 366 ± 115 nmol/mg Creatinine	10 ± 4	8.9	4.2	up to 320 h	more than 60 fold	–	–	–	–
O=S(=O)(c1ccc(O)cc1)c1ccc(O)cc1 [BPS, 4,4′-sulfonyldiphenol]	9 ± 6	–	1.09e-05	–	17.7	2455 ± 974 nmol-h/mg Creatinine	41 ± 16 nmol/mg Creatinine	–	–	–	40 h	about 2 fold	17.7	48	–	–
COP(=S)(OC)Oc1ccc(Sc2ccc(OP(=S)(OC)OC)cc2)cc1 [Temephos, temephos]	–	–	–	–	–	–	–	–	–	–	–	–	–	–	practically undetectable	only traces
